For data set [1], the system named is human prostate cancer 22Rv1 cells. In words: Apoptosis induction analysis (flow cytometry, PI staining, sub-G1 peak). As to conditions: treatment with 1 µM for 48 h. It is filed as cell-based. As to the method: (§1) The human prostate cancer cells lines 22Rv1, PC-3, and LNCaP were purchased from ATCC. Cell lines were cultured according to the manufacturers instructions in 10% FBS/RPMI media (Invitrogen) with (for LNCaP) or without (for 22Rv1 and PC-3) 1 mM sodium pyruvate (Invitrogen). Cells were continuously kept in culture for a maximum of 3 months and were routinely inspected microscopically for stable phenotype and regularly checked for contamination with mycoplasma. Cell line authentication was performed by DSMZ (Braunschweig, Germany) using highly polymorphic short tandem repeat loci.
The cell cycle distribution was analyzed by flow cytometry using PI staining as described before with slight modifications. In brief, cells were pre-incubated overnight in 6-well plates (2 × 10^5 cells/well in 2 mL/well). The medium was changed to fresh medium containing different concentrations of the substances. After 48 h of treatment, cells were harvested with a trypsin-EDTA solution, fixed with 70% EtOH, stained, and analyzed by FACS. The results were quantitatively analyzed using Cell Quest Pro software (Version 5.2.1., BD Bioscience, Bedford, MA, USA). Cells appeared at sub-G1 peak were assumed as apoptotic.
In general terms: In flow cytometry, cells or beads pass a laser one at a time.

A further data set has as its system CD-I mouse erythrocytes. Put plainly: Hemolytic activity. It is filed as cell-based. As to the method: The hemolytic activity was evaluated using CD-I mouse erythrocytes as previously described.
The nature of data set [2]: MTT cytotoxicity assay, PC-3 cells. Conditions: human, PC-3 prostate cancer cells. It is filed as cell-based. Here is the method:
as §1
(§2) The in vitro cytotoxicity of individual substances was evaluated using the MTT (3-(4,5-dimethylthiazol-2-yl)-2,5-diphenyltetrazolium bromide) assay, which was performed as previously described. Cytotoxicity against CD-I mouse splenocytes was determined according to Freshney. Docetaxel was used as a reference substance.
In general terms: Formazan colour is commonly taken as a measure of viable cells.

Data set [3] concerns a number of different cancer cells. Details: method as in PMID 26039736. As to conditions: up to 10 µM; cited from earlier work.
The nature of data set [4]: MTT cytotoxicity assay, LNCaP cells. It is filed as cell-based. As to conditions: human, LNCaP prostate cancer cells. As to the method: as §1, §2
A short description of data set [5]: MTT cytotoxicity assay, 22Rv1 cells. It is filed as cell-based. As to conditions: human, 22Rv1 prostate cancer cells. Here is the method: as §1, §2
In another data set the test system is CD-I mouse splenocytes. Put plainly: Cytotoxicity against mouse splenocytes. It counts as cell-based. Conditions: non-malignant murine splenocytes. As to the method:
as §2

For orientation: IC50 means the concentration at which inhibition is half-maximal. The low end stands for inhibition by little substance, the high end for a need for much substance. As to `COc1ccc(C2SSC34CC5(O)C(Cl)C=CC(O)C5ON3C(=O)C2N(C)C4=O)c(O)c1OC` (centres unmarked) [compound 5, N-methylpretrichodermamide B], in data set [1], the apoptosis is reported as 31.3% ± 8.2. The hemolytic activity result in the data set with CD-I mouse erythrocytes (murine erythrocytes, up to 100 µM) is on record as “did not show hemolitic activity”. Further, in the data set with CD-I mouse erythrocytes (non-malignant murine erythrocytes), the “ED50 (erythrocytes)” value is over 100000 nM. For the same compound, the IC50 in data set [2] was determined as 5110 nM; in data set [4], 1760 nM; in data set [5] it was 510 nM. For the same compound, the “cytotoxic effect against a number of different cancer cells” value in data set [3] is given as “did not show any cytotoxic effect”. In addition, the “ED50 (cytotoxicity for splenocytes)” value with CD-I mouse splenocytes is 62100 nM.

With `CC(=O)O[C@@]12CO[C@@H]1C[C@H](O)[C@@]1(C)C(=O)[C@H](O)C3=C(C)[C@@H](OC(=O)[C@H](O)[C@@H](NC(=O)OC(C)(C)C)c4ccccc4)C[C@@](O)([C@@H](OC(=O)c4ccccc4)[C@H]21)C3(C)C` [docetaxel, reference compound], the values for the IC50 in data set [2], in data set [4] and in data set [5] were 15 nM, 4 nM and 13 nM, respectively.

(Values after paper PMC4962012, “Pretrichodermamides D–F from a Marine Algicolous Fungus Penicillium sp. KMM 4672” (Marine Drugs, 2016).)
